# Assay results published in the supplement of paper PMC10307832.
# Tests used:
# Experiment in all cases: relative viability (nuclei count vs DMSO), 5 days (fraction); higher = more cells survive
# Quizartinib + Bortezomib = compound: CC(C)(C)c1cc(NC(=O)Nc2ccc(-c3cn4c(n3)sc3cc(OCCN5CCOCC5)ccc34)cc2)no1 [Quizartinib] + CC(C)C[C@H](NC(=O)[C@H](Cc1ccccc1)NC(=O)c1cnccn1)B(O)O [Bortezomib] (partner 0.002 µM)
# In short: (§1)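 Lung cancer cell lines, seeded in 1536-well plates, were treated the following day by pin tool with a single drug or with five library-drug doses (not always all listed) in √10 steps on top of a fixed anchor-drug dose. Cells were fixed and nuclei stained in one step after 5 days, and nuclei were counted. Relative viability is the nuclei count for treated wells divided by that for vehicle wells, reported as medians of duplicate plates.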
# Quizartinib + Decitabine = compound: CC(C)(C)c1cc(NC(=O)Nc2ccc(-c3cn4c(n3)sc3cc(OCCN5CCOCC5)ccc34)cc2)no1 [Quizartinib] + Nc1ncn([C@H]2C[C@H](O)[C@@H](CO)O2)c(=O)n1 [Decitabine] (partner 2 µM)
# In short: as §1
# YM155 + Luminespib = compound: COCC[n+]1c2c(n(Cc3cnccn3)c1C)C(=O)c1ccccc1C2=O [YM155] + CCNC(=O)c1noc(-c2cc(C(C)C)c(O)cc2O)c1-c1ccc(CN2CCOCC2)cc1 [Luminespib] (partner 0.01 µM)
# In short: as §1
# YM155 + Dasatinib = compound: COCC[n+]1c2c(n(Cc3cnccn3)c1C)C(=O)c1ccccc1C2=O [YM155] + Cc1nc(Nc2ncc(C(=O)Nc3c(C)cccc3Cl)s2)cc(N2CCN(CCO)CC2)n1 [Dasatinib] (partner 0.075 µM)
# In short: as §1
Cell Line,relative viability (Quizartinib + Bortezomib; first compound 0.001 µM),relative viability (Quizartinib + Bortezomib; first compound 0.003162 µM),relative viability (Quizartinib + Bortezomib; first compound 0.01 µM),relative viability (Quizartinib + Bortezomib; first compound 0.03162 µM),relative viability (Quizartinib + Bortezomib; first compound 0.1 µM),relative viability (Quizartinib + Decitabine; first compound 0.001 µM),relative viability (Quizartinib + Decitabine; first compound 0.003162 µM),relative viability (Quizartinib + Decitabine; first compound 0.01 µM),relative viability (Quizartinib + Decitabine; first compound 0.1 µM),relative viability (YM155 + Luminespib; first compound 0.002 µM),relative viability (YM155 + Luminespib; first compound 0.006325 µM),relative viability (YM155 + Luminespib; first compound 0.02 µM),relative viability (YM155 + Luminespib; first compound 0.06325 µM),relative viability (YM155 + Dasatinib; first compound 0.002 µM),relative viability (YM155 + Dasatinib; first compound 0.006325 µM),relative viability (YM155 + Dasatinib; first compound 0.02 µM),relative viability (YM155 + Dasatinib; first compound 0.06325 µM),relative viability (Quizartinib + Decitabine; first compound 0.03162 µM)
SW 1573,0.71,0.804,1.24,0.684,1.01,0.513,0.476,0.67,0.625,0.246,0.179,0.17,0.0748,0.446,0.474,0.133,0.0759,
NCI-H2087,0.833,0.927,0.88,0.939,0.914,0.257,0.238,0.332,0.287,0.194,0.17,0.148,0.149,0.765,0.78,0.964,0.775,0.249
HCC-15,0.759,0.992,0.987,0.984,0.988,0.57,0.651,0.612,0.615,0.361,0.369,0.311,0.161,0.663,0.56,0.593,0.507,0.521
NCI-H1915,0.924,0.836,0.916,1.06,1.01,0.23,0.252,0.279,0.267,0.803,0.809,0.829,0.711,0.311,0.284,0.309,0.301,0.263
NCI-H1666,0.738,0.753,0.823,0.511,0.813,0.649,0.723,0.777,0.783,1.01,1.07,1.02,0.852,0.812,0.791,0.799,0.826,0.717
NCI-H1651,0.801,0.938,1.08,0.888,0.993,0.626,0.642,0.667,0.626,0.869,0.836,0.789,0.604,0.437,0.372,0.442,0.39,0.612
NCI-H2347,0.757,1.14,0.968,0.959,1.23,0.578,0.586,0.65,0.59,0.409,0.41,0.647,0.368,0.323,0.321,0.35,0.334,0.619
NCI-H1734,0.862,0.769,1.05,0.776,0.944,0.504,0.459,0.656,0.485,0.242,0.202,0.23,0.174,0.471,0.525,0.495,0.518,0.499
